Values of other authors in patent US10815533B2, “Biomarker for diagnosing anticancer drug resistance of gastric cancer and use thereof” (SAMSUNG LIFE PUBLIC WELFARE FOUNDATION, priority 2017, dated 2020).

Assays:
[1] = system: gastric cancer cell line in which FGFR2 was amplified; details: preclinical result
FGFR2b+gastric cancer = details: phase I clinical trial, 3 out of 9

In the case of CCN1CCN(c2ccc(Nc3cc(N(C)C(=O)Nc4c(Cl)c(OC)cc(OC)c4Cl)ncn3)cc2)CC1 [BGJ398], the antitumor efficacy [1] is given as “strong antitumor efficacy”.

B1: FPA144: selective monoclonal antibody against the FGFR2b subtype (antibody, chains of the INN, looked up, V domains shown)
VH: QVQLVQSGAEVKKPGSSVKVSCKASGYIFTTYNVHWVRQAPGQGLEWIGSIYPDNGDTSYNQNFKGRATITADKSTSTAYMELSSLRSEDTAVYYCARGDFAYWGQGTLVTVSS
VL: DIQMTQSPSSLSASVGDRVTITCKASQGVSNDVAWYQQKPGKAPKLLIYSASYRYTGVPSRFSGSGSGTDFTFTISSLQPEDIATYYCQQHSTTPYTFGQGTKLEIK
For B1, the response rate (FGFR2b+gastric cancer) is listed as 33%.
